Patent US8476265B2, “Compounds-801” (AstraZeneca AB, priority 2010, dated 2013)

Columns and labels:
[1] = biological target: T1, human muscarinic acetylcholine M3 receptor (Homo sapiens, UniProt P20309); test: Muscarinic 3 receptor binding assay ([3H]NMS competition, SPA), pIC50; conditions: [3H]NMS 0.1 nM, CHO-K1 cell membranes expressing human M3 receptor
T1 construct: expressed in transfected cells; host or cells: CHO-K1 (Chinese Hamster Ovary) cell membranes
How it was run: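 SPA beads precoated with human M3-expressing CHO-K1 membranes were incubated 16 h at room temperature with serially diluted compound and 0.1 nM [3H]NMS (pH 7.4 HEPES buffer, MgCl2, BSA, 1% DMSO). Atropine (1 μM) defined non-specific binding; pIC50 is the 50% reduction in specific binding.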

Adrenergic β2 = biological target: T2, Adrenergic β2 (Homo sapiens, UniProt P07550); test: Adrenergic β2 mediated cAMP production in H292 cells (AlphaScreen), concentration response; assay type: cell-based; conditions: for EC50: 60 min, 300 μM rolipram, read-out: β2 pEC50 (converted); for β2 Intrinsic Activity: fraction relative to the maximum activity determined for formoterol
T2 construct: Adherent H292 cells are removed from tissue culture flasks by treatment with Accutase™ cell detachment solution; endogenous in cells; host or cells: H292 cells
T2 sequence (P07550 whole entry): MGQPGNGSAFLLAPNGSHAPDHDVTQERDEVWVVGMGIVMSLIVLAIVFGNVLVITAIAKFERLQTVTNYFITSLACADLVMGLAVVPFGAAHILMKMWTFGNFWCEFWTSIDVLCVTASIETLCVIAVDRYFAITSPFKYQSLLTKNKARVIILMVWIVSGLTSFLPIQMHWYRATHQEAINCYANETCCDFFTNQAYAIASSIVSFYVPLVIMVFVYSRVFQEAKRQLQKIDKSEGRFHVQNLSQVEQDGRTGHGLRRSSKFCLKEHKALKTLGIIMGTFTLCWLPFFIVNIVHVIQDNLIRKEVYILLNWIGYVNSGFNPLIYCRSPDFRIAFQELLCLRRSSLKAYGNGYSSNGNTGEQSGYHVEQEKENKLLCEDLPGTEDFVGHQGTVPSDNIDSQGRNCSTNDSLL
How it was run: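 Intracellular cAMP in lysates read by AlphaScreen, calibrated with cAMP standards; curves fitted for pEC50, with intrinsic activity as a fraction of formoterol's maximum. Agonist exposure 60 min at room temperature after 10 min rolipram (300 μM final), 1% DMSO, HEPES-buffered HBSS pH 7.4.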

T1 sequence (P20309 whole entry): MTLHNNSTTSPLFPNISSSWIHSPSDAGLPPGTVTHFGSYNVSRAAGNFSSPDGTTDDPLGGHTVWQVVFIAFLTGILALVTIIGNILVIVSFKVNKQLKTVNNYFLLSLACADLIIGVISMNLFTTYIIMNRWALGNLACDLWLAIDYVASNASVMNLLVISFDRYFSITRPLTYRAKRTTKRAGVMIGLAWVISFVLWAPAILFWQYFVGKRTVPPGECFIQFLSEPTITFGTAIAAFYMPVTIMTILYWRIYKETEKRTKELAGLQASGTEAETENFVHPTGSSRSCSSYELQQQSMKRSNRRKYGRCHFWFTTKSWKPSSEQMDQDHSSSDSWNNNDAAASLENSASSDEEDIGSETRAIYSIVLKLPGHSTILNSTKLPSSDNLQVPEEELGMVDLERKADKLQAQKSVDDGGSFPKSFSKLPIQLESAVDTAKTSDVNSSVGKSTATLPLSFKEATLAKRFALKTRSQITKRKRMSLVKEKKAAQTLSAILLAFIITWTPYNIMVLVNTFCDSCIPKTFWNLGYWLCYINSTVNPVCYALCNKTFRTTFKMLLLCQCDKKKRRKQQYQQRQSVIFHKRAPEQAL

Row | Structure (SMILES) | IC50 [1] [nM] | EC50 (Adrenergic β2) [nM] | β2 Intrinsic Activity (Adrenergic β2)
1 | CCCCN(CCCNCCc1ccc(O)c2c1OCC(=O)N2)C(=O)CCOCCc1cccc(CN2CCC3(CC2)CN(C(=O)c2csc(CC)n2)CCO3)c1Cl [Example 80] | 0.631 | 63.1 | 0.5
2 | O=C1COc2c(CCNCCN(C(=O)CCOCCc3cccc(CN4CCC5(CC4)CN(C(=O)c4cc6ccccc6s4)CCO5)c3)C3CCCCC3)ccc(O)c2N1 [Example 81, 3-(3-((4-(Benzo[b]thiophene-2-carbonyl)-1-oxa-4,9-diazaspiro[5.5]undecan-9-yl)methyl)phenethoxy)-N-cyclohexyl-N-(2-(2-(5-hydroxy-3-oxo-3,4-dihydro-2H-benzo[b][1,4]oxazin-8-yl)ethylamino)ethyl)propanamide] | 3.98 | 251 | 0.9
3 | O=C1COc2c(CCNCCN(C(=O)CCOCCc3cccc(CN4CCC5(CC4)CN(C(=O)c4csc(-c6ccccc6)n4)CCO5)c3)C3CCCCC3)ccc(O)c2N1 [Example 82, N-Cyclohexyl-N-(2-(2-(5-hydroxy-3-oxo-3,4-dihydro-2H-benzo[b][1,4]oxazin-8-yl)ethylamino)ethyl)-3-(3-((4-(2-phenylthiazole-4-carbonyl)-1-oxa-4,9-diazaspiro[5.5]undecan-9-yl)methyl)phenethoxy)propanamide] | 1.26 | 501 | 1.0
4 | CCc1ccc(C(=O)N2CCOC3(CCN(Cc4cccc(CCOCCC(=O)N(CCNCCc5ccc(O)c6c5OCC(=O)N6)C5CCCCC5)c4)CC3)C2)s1 [Example 83, N-Cyclohexyl-3-(3-((4-(5-ethylthiophene-2-carbonyl)-1-oxa-4,9-diazaspiro[5.5]undecan-9-yl)methyl)phenethoxy)-N-(2-(2-(5-hydroxy-3-oxo-3,4-dihydro-2H-benzo[b][1,4]oxazin-8-yl)ethylamino)ethyl)propanamide] | 0.316 | 251 | 1.1
5 | O=C1COc2c(CCNCCN(C(=O)CCOCCc3cccc(CN4CCC5(CC4)CN(C(=O)c4ccc6occc6c4)CCO5)c3)C3CCCCC3)ccc(O)c2N1 [Example 84, 3-(3-((4-(Benzofuran-5-carbonyl)-1-oxa-4,9-diazaspiro[5.5]undecan-9-yl)methyl)phenethoxy)-N-cyclohexyl-N-(2-(2-(5-hydroxy-3-oxo-3,4-dihydro-2H-benzo[b][1,4]oxazin-8-yl)ethylamino)ethyl)propanamide] | 0.2 | 200 | 1.0
6 | Cc1cc(C(=O)N2CCOC3(CCN(Cc4cccc(CCOCCC(=O)N(CCNCCc5ccc(O)c6c5OCC(=O)N6)C5CCCCC5)c4)CC3)C2)cs1 [Example 85, N-Cyclohexyl-N-(2-(2-(5-hydroxy-3-oxo-3,4-dihydro-2H-benzo[b][1,4]oxazin-8-yl)ethylamino)ethyl)-3-(3-((4-(5-methylthiophene-3-carbonyl)-1-oxa-4,9-diazaspiro[5.5]undecan-9-yl)methyl)phenethoxy)propanamide] | 0.126 | 126 | 0.9
7 | CC(C)(C)c1nc(C(=O)N2CCOC3(CCN(Cc4cccc(CCOCCC(=O)N(CCNCCc5ccc(O)c6c5OCC(=O)N6)C5CCCCC5)c4)CC3)C2)cs1 [Example 86, 3-(3-((4-(2-tert-Butylthiazole-4-carbonyl)-1-oxa-4,9-diazaspiro[5.5]undecan-9-yl)methyl)phenethoxy)-N-cyclohcxyl-N-(2-(2-(5-hydroxy-3-oxo-3,4-dihydro-2H-benzo[b][1,4]oxazin-8-yl)ethylamino)ethyl)propanamide] | 1.58 | 158 | 1.0
8 | O=C1COc2c(CCNCCN(C(=O)CCOCCc3cccc(CN4CCC5(CC4)CN(C(=O)c4csc(C6CCC6)n4)CCO5)c3)C3CCCCC3)ccc(O)c2N1 [Example 87, 3-(3-((4-(2-Cyclobutylthiazole-4-carbonyl)-1-oxa-4,9-diazaspiro[5.5]undecan-9-yl)methyl)phenethoxy)-N-cyclohexyl-N-(2-(2-(5-hydroxy-3-oxo-3,4-dihydro-2H-benzo[b][1,4]oxazin-8-yl)ethylamino)ethyl)propanamide] | 0.2 | 158 | 1.0
9 | O=C1COc2c(CCNCCN(C(=O)CCOCCc3cccc(CN4CCC5(CC4)CN(C(=O)c4csc(C6CCCC6)n4)CCO5)c3)C3CCCCC3)ccc(O)c2N1 [Example 88, N-Cyclohexyl-3-(3-((4-(2-cyclopentylthiazole-4-carbonyl)-1-oxa-4,9-diazaspiro[5.5]undecan-9-yl)methyl)phenethoxy)-N-(2-(2-(5-hydroxy-3-oxo-3,4-dihydro-2H-benzo[b][1,4]oxazin-8-yl)ethylamino)ethyl)propanamide] | 0.2 | 200 | 1.0
10 | Cc1cc(C(=O)N2CCOC3(CCN(Cc4cccc(CCOCCC(=O)N(CCNCCc5ccc(O)c6c5OCC(=O)N6)C5CCCCC5)c4)CC3)C2)sc1C [Example 89, N-Cyclohexyl-3-(3-((4-(4,5-dimethylthiophene-2-carbonyl)-1-oxa-4,9-diazaspiro[5.5]undecan-9-yl)methyl)phenethoxy)-N-(2-(2-(5-hydroxy-3-oxo-3,4-dihydro-2H-benzo[b][1,4]oxazin-8-yl)ethylamino)ethyl)propanamide] | 5.01 | 200 | 1.0
11 | CC(C)c1ccc(C(=O)N2CCOC3(CCN(Cc4cccc(CCOCCC(=O)N(CCNCCc5ccc(O)c6c5OCC(=O)N6)C5CCCCC5)c4)CC3)C2)s1 [Example 90, N-Cyclohexyl-N-(2-(2-(5-hydroxy-3-oxo-3,4-dihydro-2H-benzo[b][1,4]oxazin-8-yl)ethylamino)ethyl)-3-(3-((4-(5-isopropylthiophene-2-carbonyl)-1-oxa-4,9-diazaspiro[5.5]undecan-9-yl)methyl)phenethoxy)propanamide] | 0.501 | 251 | 1.0
12 | CC(C)c1cc(C(=O)N2CCOC3(CCN(Cc4cccc(CCOCCC(=O)N(CCNCCc5ccc(O)c6c5OCC(=O)N6)C5CCCCC5)c4)CC3)C2)cs1 [Example 91, N-Cyclohexyl-N-(2-(2-(5-hydroxy-3-oxo-3,4-dihydro-2H-benzo[b][1,4]oxazin-8-yl)ethylamino)ethyl)-3-(3-((4-(5-isopropylthiophene-3-carbonyl)-1-oxa-4,9-diazaspiro[5.5]undecan-9-yl)methyl)phenethoxy)propanamide] | 0.2 | 251 | 1.2
13 | O=C1COc2c(CCNCCN(C(=O)CCOCCc3cccc(CN4CCC5(CC4)CN(C(=O)c4ccc6sccc6c4)CCO5)c3)C3CCCCC3)ccc(O)c2N1 [Example 92, 3-(3-((4-(Benzo[b]thiophene-5-carbonyl)-1-oxa-4,9-diazaspiro[5.5]undecan-9-yl)methyl)phenethoxy)-N-cyclohexyl-N-(2-(2-(5-hydroxy-3-oxo-3,4-dihydro-2H-benzo[b][1,4]oxazin-8-yl)ethylamino)ethyl)propanamide] | 1.26 | 251 | 1.1
14 | CCCc1cc(C(=O)N2CCOC3(CCN(Cc4cccc(CCOCCC(=O)N(CCNCCc5ccc(O)c6c5OCC(=O)N6)C5CCCCC5)c4)CC3)C2)cs1 [Example 93, N-Cyclohexyl-N-(2-(2-(5-hydroxy-3-oxo-3,4-dihydro-2H-benzo[b][1,4]oxazin-8-yl)ethylamino)ethyl)-3-(3-((4-(5-propylthiophene-3-carbonyl)-1-oxa-4,9-diazaspiro[5.5]undecan-9-yl)methyl)phenethoxy)propanamide] | 0.2 | 251 | 1.1
15 | CC(C)Cc1nc(C(=O)N2CCOC3(CCN(Cc4cccc(CCOCCC(=O)N(CCNCCc5ccc(O)c6c5OCC(=O)N6)C5CCCCC5)c4)CC3)C2)cs1 [Example 94, N-Cyclohexyl-N-(2-(2-(5-hydroxy-3-oxo-3,4-dihydro-2H-benzo[b][1,4]oxazin-8-yl)ethylamino)ethyl)-3-(3-((4-(2-isobutylthiazole-4-carbonyl)-1-oxa-4,9-diazaspiro[5.5]undecan-9-yl)methyl)phenethoxy)propanamide] | 0.251 | 126 | 1.0
16 | CCc1nc(C(=O)N2CCOC3(CCN(Cc4cccc(CCOCCC(=O)N(CCNCCc5ccc(O)c6c5OCC(=O)N6)C5CCCCC5)c4)CC3)C2)cs1 [Example 95, N-Cyclohexyl-3-(3-((4-(2-ethylthiazole-4-carbonyl)-1-oxa-4,9-diazaspiro[5.5]undecan-9-yl)methyl)phenethoxy)-N-(2-(2-(5-hydroxy-3-oxo-3,4-dihydro-2H-benzo[b][1,4]oxazin-8-yl)ethylamino)ethyl)propanamide] | 0.126 | 100 | 1.0
17 | CCC(CC)c1nc(C(=O)N2CCOC3(CCN(Cc4cccc(CCOCCC(=O)N(CCNCCc5ccc(O)c6c5OCC(=O)N6)C5CCCCC5)c4)CC3)C2)cs1 [Example 96, N-Cyclohexyl-N-(2-(2-(5-hydroxy-3-oxo-3,4-dihydro-2H-benzo[b][1,4]oxazin-8-yl)ethylamino)ethyl)-3-(3-((4-(2-(pentan-3-yl)thiazole-4-carbonyl)-1-oxa-4,9-diazaspiro[5.5]undecan-9-yl)methyl)phenethoxy)propanamide] | 0.251 | 158 | 1.0
